Results as given in patent publication US7579356B2, “Thia-tetraazaacenaphthylene kinase inhibitors” (Janssen Pharmaceutica NV, priority 2005, dated 2009).

The compounds below were run against T1, HER-4 (Homo sapiens, UniProt Q15303) (assay: HER-4 Kinase Assay). Settings: not given.
T1 construct: His6 with thrombin site (N); purchased Proqinase (Freiburg, Germany)
Type: biochemical
Experimental: The HER-4 kinase used was purified at Proqinase (Freiburg, Germany) from a construct that consisted of a fusion of GST (Glutathione-S-Transferase), HIS6-Thrombin and the nucleotides encoding amino acids 676 to 1307 of HER-4 (Accession NM 005235).
A mixture of a 10× kinase reaction buffer (600 mM Hepes at pH 7.5, 30 mM Magnesium Chloride, 0.03 mM Sodium Vanadate and 500 μg/mL PEG 20,000), DTT (1.2 mM final from a 10 mM) stock), ATP (1 μM from a 10 mM stock), biotinylated polyGluTyr (1.5 ng/μL final from stock of 1 μg/μL) prepared by Upstate Biotechnologies, Lake Placid, N.Y.), Manganese Chloride (3 mM final from a 1 M stock), γ-^33P-ATP (10 μCl/mL stock) and water (70 μL/well) was added to each well of a Streptavidin Flashplate (Cat. # SMP103, NEN, Boston, Mass.).
Test compound stock (1 μL) was added to the appropriate wells. Diluted GST HER-4 kinase (6.7 ng/μL diluted into 50 mM Tris-HCl at pH 8.0 and 0.1% bovine serum albumin) (30 μL) was added (total volume of 200 ng/well) to initiate the reactions.
The reaction plates were incubated at 30° C. for 1 hr. The reaction was terminated by aspirating the reaction mixture from the plate wells and washing the wells three times with a 1×PBS stop buffer (300 μL) and 100 mM EDTA. After the final wash, the same stop buffer (200 μL) was again added to the wells. The plates were then sealed and read on the TopCount scintillation counter.
For a series of test concentrations, the IC50 was derived by graphing percent inhibition against the log of the concentrations tested for a given compound.

T1 sequence (Q15303 676-1307): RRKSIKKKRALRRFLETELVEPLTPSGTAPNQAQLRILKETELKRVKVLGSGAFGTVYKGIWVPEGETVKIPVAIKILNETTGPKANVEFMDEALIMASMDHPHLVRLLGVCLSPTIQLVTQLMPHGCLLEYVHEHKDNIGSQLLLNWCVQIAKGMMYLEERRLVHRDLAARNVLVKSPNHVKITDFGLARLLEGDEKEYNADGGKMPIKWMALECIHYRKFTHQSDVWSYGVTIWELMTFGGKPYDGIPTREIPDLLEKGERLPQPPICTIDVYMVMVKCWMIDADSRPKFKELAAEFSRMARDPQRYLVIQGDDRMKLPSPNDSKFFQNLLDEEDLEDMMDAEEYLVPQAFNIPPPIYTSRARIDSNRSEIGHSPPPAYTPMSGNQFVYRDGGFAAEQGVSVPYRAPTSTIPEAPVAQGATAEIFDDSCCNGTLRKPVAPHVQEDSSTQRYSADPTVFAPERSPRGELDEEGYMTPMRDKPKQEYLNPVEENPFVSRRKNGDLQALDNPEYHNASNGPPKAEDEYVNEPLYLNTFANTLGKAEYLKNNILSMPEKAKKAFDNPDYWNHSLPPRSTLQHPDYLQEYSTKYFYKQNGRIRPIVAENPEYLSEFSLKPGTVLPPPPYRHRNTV

IC50	SMILES
0.018 µM	O=C(Nc1ccc(CN2CCCCC2)cc1)c1sc2ncnc3c2c1NC(=O)N3c1ccc(Oc2ccccc2)cc1 [Cpd 96, 4-oxo-5-(4-phenoxy-phenyl)-4,5-dihydro-3H-1-thia-3,5,6,8-tetraaza-acenaphthylene-2-carboxylic acid (4-piperidin-1-ylmethyl-phenyl)-amide]
0.099 µM	O=C(Nc1ccc(CN2CCOCC2)cc1)c1sc2ncnc3c2c1NC(=O)N3c1ccc(Oc2ccccc2)cc1 [Cpd 97, 4-oxo-5-(4-phenoxy-phenyl)-4,5-dihydro-3H-1-thia-3,5,6,8-tetraaza-acenaphthylene-2-carboxylic acid (4-morpholin-4-ylmethyl-phenyl)-amide]
0.081 µM	CN1CCN(Cc2ccc(NC(=O)c3sc4ncnc5c4c3NC(=O)N5c3ccc(Oc4ccccc4)cc3)cc2)CC1 [Cpd 98, 4-oxo-5-(4-phenoxy-phenyl)-4,5-dihydro-3H-1-thia-3,5,6,8-tetraaza-acenaphthylene-2-carboxylic acid [4-(4-methyl-piperazin-1-ylmethyl)-phenyl]-amide]

These compounds were tested on HeLa cervical adenocarcinoma (assay: Cell Proliferation Inhibition Assay, Hela (C14 method)). Settings: Homo sapiens, Table 7.
Type: cell-based
Excerpt: Cell Proliferation Inhibition Assay
The ability of a test compound to inhibit unregulated cell proliferation may be determined by measuring incorporation of ^14C-labelled thymidine into newly synthesized DNA within cell lines derived from carcinomas originating from several tissues. Accordingly, the effect of a test compound on proliferation of cells with a variety of phenotypes may be determined.
Carcinoma cell lines used include the HeLa cervical adenocarcinoma from the American Type Culture Collection (ATCC Cat. #CCL2), A375 malignant melanoma (ATCC Cat. #CRL-1619), HCT-116 colon carcinoma (ATCC Cat. #CCL-247), SKBR3 breast carcinoma (ATCC Cat. #HTB-30) and BT474 breast carcinoma (ATCC Cat. #HTB-20).
The carcinoma cells were trypsinized and counted. The cells (3000-8000 count) were added to each well of a 96-well CytoStar tissue culture treated scintillating microplate (Amersham #RPNQ0160) in complete medium (100 μL) and the plate was then incubated in complete medium for 24 hrs at 37° C. in an inert atmosphere containing 5% CO2.
Test compound (1 μL) in 100% DMSO was added to the plate test-wells with DMSO only added to control-wells. The plate was incubated in complete medium for a second 24 hr period at 37° C. in an atmosphere containing 5% CO2.
An aliquot of a solution of Methyl ^14C-thymidine (56 mC/mmol) (NEN #NEC568 or AMersham #CFA532) and complete medium (20 uL to provide 0.2 μCl/well) was then added to each well and the plate was incubated for a third 24 hr period at 37° C. in an atmosphere containing 5% CO2.
The plate contents were then discarded, the plate washed twice with PBS (200 μL) and then PBS (200 μL) was added to each well. The plate was sealed and the degree of methyl ^14C-thymidine incorporation was quantified on a Packard Top Count.
Cell proliferation of the Hela cell line was measured using the ATP-Lite method as described in the ATP Lite Kit (Perkin-Elmer Kit Number 6106941) or the C^14 method as described above. Cell proliferation of the other cell lines was measured using the C^14 method.

SMILES	IC50
O=C(O)c1sc2ncnc3c2c1NC(=O)N3c1ccc2c(ccn2Cc2cccc(F)c2)c1 [Cpd 77, 5-[1-(3-fluoro-benzyl)-1H-indol-5-yl]-4-oxo-4,5-dihydro-3H-1-thia-3,5,6,8-tetraaza-acenaphthylene-2-carboxylic acid]	≥ 100 µM
CCOC(=O)c1sc2ncnc3c2c1NC(=O)N3c1ccc2c(cnn2Cc2cccc(F)c2)c1 [Cpd 78, 5-[1-(3-fluoro-benzyl)-1H-indazol-5-yl]-4-oxo-4,5-dihydro-3H-1-thia-3,5,6,8-tetraaza-acenaphthylene-2-carboxylic acid ethyl ester]	≥ 100 µM
O=C(O)c1sc2ncnc3c2c1NC(=O)N3c1ccc2c(cnn2Cc2cccc(F)c2)c1 [Cpd 79, 5-[1-(3-fluoro-benzyl)-1H-indazol-5-yl]-4-oxo-4,5-dihydro-3H-1-thia-3,5,6,8-tetraaza-acenaphthylene-2-carboxylic acid]	≥ 100 µM
O=C(Nc1ccc(CN2CCCCC2)cc1)c1sc2ncnc3c2c1NC(=O)N3c1ccc2c(cnn2Cc2cccc(F)c2)c1 [Cpd 80, 5-[1-(3-fluoro-benzyl)-1H-indazol-5-yl]-4-oxo-4,5-dihydro-3H-1-thia-3,5,6,8-tetraaza-acenaphthylene-2-carboxylic acid (4-piperidin-1-ylmethyl-phenyl)-amide]	5.14 µM
O=C(Nc1ccc(CN2CCCCC2)cc1)c1sc2ncnc3c2c1NC(=O)N3c1ccc2c(ccn2Cc2cccc(F)c2)c1 [Cpd 87, 5-[1-(3-fluoro-benzyl)-1H-indol-5-yl]-4-oxo-4,5-dihydro-3H-1-thia-3,5,6,8-tetraaza-acenaphthylene-2-carboxylic acid (4-piperidin-1-ylmethyl-phenyl)-amide]	3.19 µM
CC(C)(C)OC(=O)N1CCC(NC(=O)c2sc3ncnc4c3c2NC(=O)N4c2ccc3c(ccn3Cc3cccc(F)c3)c2)CC1 [Cpd 91, 4-({5-[1-(3-fluoro-benzyl)-1H-indol-5-yl]-4-oxo-4,5-dihydro-3H-1-thia-3,5,6,8-tetraaza-acenaphthylene-2-carbonyl}-amino)-piperidine-1-carboxylic acid tert-butyl ester]	1 µM
CN1CCC(NC(=O)c2sc3ncnc4c3c2NC(=O)N4c2ccc3c(ccn3Cc3cccc(F)c3)c2)CC1 [Cpd 92, 5-[1-(3-fluoro-benzyl)-1H-indol-5-yl]-4-oxo-4,5-dihydro-3H-1-thia-3,5,6,8-tetraaza-acenaphthylene-2-carboxylic acid (1-methyl-piperidin-4-yl)-amide]	4.3 µM
O=C(NCCN1CCOCC1)c1sc2ncnc3c2c1NC(=O)N3c1ccc2c(ccn2Cc2cccc(F)c2)c1 [Cpd 93, 5-[1-(3-fluoro-benzyl)-1H-indol-5-yl]-4-oxo-4,5-dihydro-3H-1-thia-3,5,6,8-tetraaza-acenaphthylene-2-carboxylic acid (2-morpholin-4-yl-ethyl)-amide]	≥ 10 µM
O=C(Nc1ccc(N2CCOCC2)cc1)c1sc2ncnc3c2c1NC(=O)N3c1ccc2c(ccn2Cc2cccc(F)c2)c1 [Cpd 94, 5-[1-(3-fluoro-benzyl)-1H-indol-5-yl]-4-oxo-4,5-dihydro-3H-1-thia-3,5,6,8-tetraaza-acenaphthylene-2-carboxylic acid (4-morpholin-4-yl-phenyl)-amide]	≥ 100 µM
O=C(NCCCN1CCOCC1)c1sc2ncnc3c2c1NC(=O)N3c1ccc2c(ccn2Cc2cccc(F)c2)c1 [Cpd 95, 5-[1-(3-fluoro-benzyl)-1H-indol-5-yl]-4-oxo-4,5-dihydro-3H-1-thia-3,5,6,8-tetraaza-acenaphthylene-2-carboxylic acid (3-morpholin-4-yl-propyl)-amide]	≥ 10 µM

Further lines, results first:

IC50	SMILES
≥ 100 µM	CCOC(=O)c1sc2ncnc3c2c1NC(=O)N3c1ccc(Oc2ccc(F)cc2)cc1 [Cpd 101, 5-[4-(4-fluoro-phenoxy)-phenyl]-4-oxo-4,5-dihydro-3H-1-thia-3,5,6,8-tetraaza-acenaphthylene-2-carboxylic acid ethyl ester]
≥ 100 µM	CCOC(=O)c1sc2ncnc3c2c1NC(=O)N3c1ccc(C)c(Br)c1 [Cpd 102, 5-(3-bromo-4-methyl-phenyl)-4-oxo-4,5-dihydro-3H-1-thia-3,5,6,8-tetraaza-acenaphthylene-2-carboxylic acid ethyl ester]
≥ 100 µM	CCOC(=O)c1sc2ncnc3c2c1NC(=O)N3c1cc(Br)ccc1C [Cpd 103, 5-(5-bromo-2-methyl-phenyl)-4-oxo-4,5-dihydro-3H-1-thia-3,5,6,8-tetraaza-acenaphthylene-2-carboxylic acid ethyl ester]
≥ 100 µM	Cc1ccc(N2C(=O)Nc3c(C(=O)Nc4ccc(CN5CCOCC5)cc4)sc4ncnc2c34)cc1Br [Cpd 108, 5-(3-bromo-4-methyl-phenyl)-4-oxo-4,5-dihydro-3H-1-thia-3,5,6,8-tetraaza-acenaphthylene-2-carboxylic acid (4-morpholin-4-ylmethyl-phenyl)-amide]
≥ 10 µM	Cc1ccc(Br)cc1N1C(=O)Nc2c(C(=O)Nc3ccc(CN4CCOCC4)cc3)sc3ncnc1c23 [Cpd 109, 5-(5-bromo-2-methyl-phenyl)-4-oxo-4,5-dihydro-3H-1-thia-3,5,6,8-tetraaza-acenaphthylene-2-carboxylic acid (4-morpholin-4-ylmethyl-phenyl)-amide]
15.5 µM	O=C(Nc1ccc(CN2CCOCC2)cc1)c1sc2ncnc3c2c1NC(=O)N3c1ccc(Oc2ccc(F)cc2)cc1 [Cpd 110, 5-[4-(4-fluoro-phenoxy)-phenyl]-4-oxo-4,5-dihydro-3H-1-thia-3,5,6,8-tetraaza-acenaphthylene-2-carboxylic acid (4-morpholin-4-ylmethyl-phenyl)-amide]
≥ 10 µM	Cc1ccc(N2C(=O)Nc3c(C(=O)NC4CCN(C)CC4)sc4ncnc2c34)cc1Br [Cpd 116, 5-(3-bromo-4-methyl-phenyl)-4-oxo-4,5-dihydro-3H-1-thia-3,5,6,8-tetraaza-acenaphthylene-2-carboxylic acid (1-methyl-piperidin-4-yl)-amide]
≥ 100 µM	Cc1ccc(Br)cc1N1C(=O)Nc2c(C(=O)NC3CCN(C)CC3)sc3ncnc1c23 [Cpd 117, 5-(5-bromo-2-methyl-phenyl)-4-oxo-4,5-dihydro-3H-1-thia-3,5,6,8-tetraaza-acenaphthylene-2-carboxylic acid (1-methyl-piperidin-4-yl)-amide]
≥ 10 µM	CN1CCC(NC(=O)c2sc3ncnc4c3c2NC(=O)N4c2ccc(Oc3ccc(F)cc3)cc2)CC1 [Cpd 118, 5-[4-(4-fluoro-phenoxy)-phenyl]-4-oxo-4,5-dihydro-3H-1-thia-3,5,6,8-tetraaza-acenaphthylene-2-carboxylic acid (1-methyl-piperidin-4-yl)-amide]
